Like-named read-outs stand apart in the source and are kept apart here.
Target: T1, PARK7 (Homo sapiens, UniProt Q99497)
T1 sequence (Q99497 1-189): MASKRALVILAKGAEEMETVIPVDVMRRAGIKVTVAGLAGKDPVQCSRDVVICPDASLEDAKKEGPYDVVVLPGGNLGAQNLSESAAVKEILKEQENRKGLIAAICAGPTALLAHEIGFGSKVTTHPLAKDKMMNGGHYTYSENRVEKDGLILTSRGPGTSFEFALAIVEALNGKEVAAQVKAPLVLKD
Experiment: High-throughput screen of the crude compound library, PARK7 fluorescence polarization (FP) assay with FP reagent JYQ-107
Format: biochemical
Details: 1.25 µM, crude compound library, read-out: HTS FP assay %Inhibition (1.25 µM)

Row | inhibition at 1.25 µM (FP reagent JYQ-107) [%] | inhibition at 1.25 µM [%] | Compound
1 | 82.9 | – | CN(C)c1ccc(C(=O)N2CCc3nc(NC(=O)[C@@H]4CCN(C#N)C4)sc3C2)cc1 [compound 449]
2 | 85.3 | – | N#CN1CC[C@@H](C(=O)Nc2nc3c(s2)CN(C(=O)c2ncn(-c4ccccc4)n2)CC3)C1 [compound 355]
3 | 67.9 | – | CC(C)CC(=O)N1CCc2nc(NC(=O)[C@@H]3CCN(C#N)C3)sc2C1 [compound 390]
4 | 75.4 | – | CC(C)(C)OC(=O)NCC(=O)N1CCc2nc(NC(=O)[C@@H]3CCN(C#N)C3)sc2C1 [compound 408]
5 | 80.8 | – | N#CN1CC[C@@H](C(=O)Nc2nc3c(s2)CN(C(=O)Cc2ccccc2[N+](=O)[O-])CC3)C1 [compound 400]
6 | 58.2 | – | N#CN1CC[C@@H](C(=O)Nc2nc3c(s2)CN(C(=O)Cc2ccncc2)CC3)C1 [compound 404]
7 | 72.4 | – | N#CN1CC[C@@H](C(=O)Nc2nc3c(s2)CN(C(=O)c2ccc(N4CCOCC4)cc2)CC3)C1 [compound 473]
8 | 79.7 | – | N#CN1CC[C@@H](C(=O)Nc2nc3c(s2)CN(C(=O)c2sccc2Br)CC3)C1 [compound 421]
9 | 82.2 | – | N#CN1CC[C@@H](C(=O)Nc2nc3c(s2)CN(C(=O)c2nccc4ccccc24)CC3)C1 [compound 417]
10 | 78.3 | – | N#CN1CC[C@@H](C(=O)Nc2nc3c(s2)CN(C(=O)CCC2CCCCC2)CC3)C1 [compound 435]
11 | 72.4 | – | N#CN1CC[C@@H](C(=O)Nc2nc3c(s2)CN(C(=O)CN2C(=O)c4ccccc4C2=O)CC3)C1 [compound 436]
12 | 69.7 | – | N#CN1CC[C@@H](C(=O)Nc2nc3c(s2)CN(C(=O)c2cn[nH]c2C2CC2)CC3)C1 [compound 357]
13 | 70.3 | – | N#CN1CC[C@@H](C(=O)Nc2nc3c(s2)CN(C(=O)C2CCN(c4ncccn4)CC2)CC3)C1 [compound 476]
14 | 79.5 | – | N#CN1CC[C@@H](C(=O)Nc2nc3c(s2)CN(C(=O)c2ccc(Cn4ccccc4=O)o2)CC3)C1 [compound 366]
15 | – | 79.4 | N#CN1CC[C@@H](C(=O)Nc2nc3c(s2)CN(C(=O)c2cc(COc4ccc(F)cc4F)on2)CC3)C1 [compound 335]
16 | 72.8 | – | CC(=O)CCC(=O)N1CCc2nc(NC(=O)[C@@H]3CCN(C#N)C3)sc2C1 [compound 443]
17 | – | 80.8 | N#CN1CC[C@@H](C(=O)Nc2nc3c(s2)CN(C(=O)Cc2cnn(Cc4ccccc4)c2)CC3)C1 [compound 303]
18 | 74.4 | – | N#CN1CC[C@@H](C(=O)Nc2nc3c(s2)CN(C(=O)CCc2ccc(O)cc2)CC3)C1 [compound 438]
19 | 67.9 | – | N#CN1CC[C@@H](C(=O)Nc2nc3c(s2)CN(C(=O)c2nn(-c4ccccc4)c(=O)[nH]c2=O)CC3)C1 [compound 359]
20 | 84 | – | N#CN1CC[C@@H](C(=O)Nc2nc3c(s2)CN(C(=O)c2cc(C4CCC4)on2)CC3)C1 [compound 374]
21 | 84.3 | – | Cn1nc(C2CCC2)cc1C(=O)N1CCc2nc(NC(=O)[C@@H]3CCN(C#N)C3)sc2C1 [compound 350]
22 | 75.5 | – | C#CCCCC(=O)N1CCc2nc(NC(=O)[C@@H]3CCN(C#N)C3)sc2C1 [compound 416]
23 | 52.5 | – | N#CN1CC[C@@H](C(=O)Nc2nc3c(s2)CN(C(=O)CCCCCBr)CC3)C1 [compound 412]
24 | 70.8 | – | CN1CCN(c2ccc(C(=O)N3CCc4nc(NC(=O)[C@@H]5CCN(C#N)C5)sc4C3)cc2)CC1 [compound 472]
25 | 71.7 | – | CC(=O)NCC(=O)N1CCc2nc(NC(=O)[C@@H]3CCN(C#N)C3)sc2C1 [compound 389]
26 | 73.8 | – | CC(C)(C)OC(=O)N1CC[C@H](C(=O)N2CCc3nc(NC(=O)[C@@H]4CCN(C#N)C4)sc3C2)C1 [compound 454]

The next lines start with the molecule.

Row | Compound | inhibition at 1.25 µM (FP reagent JYQ-107) [%] | inhibition at 1.25 µM [%]
27 | N#CN1CC[C@@H](C(=O)Nc2nc3c(s2)CN(C(=O)c2cccc(-c4cnco4)c2)CC3)C1 [compound 124] | – | 85.6
28 | Cc1ccc(N2CCCC(C(=O)N3CCc4nc(NC(=O)[C@@H]5CCN(C#N)C5)sc4C3)C2)nc1 (stereo partly drawn) [compound 170] | – | 62.7
29 | N#CN1CC[C@@H](C(=O)Nc2nc3c(s2)CN(C(=O)Cc2ccn(-c4ccccc4)n2)CC3)C1 [compound 162] | – | 82.9
30 | N#CN1CC[C@@H](C(=O)Nc2nc3c(s2)CN(C(=O)c2ccn(-c4ccc(C(F)(F)F)cn4)n2)CC3)C1 [compound 235] | – | 67.4
31 | N#CN1CC[C@@H](C(=O)Nc2nc3c(s2)CN(C(=O)c2cnnn2-c2ccccc2Cl)CC3)C1 [compound 40] | – | 68.9
32 | N#CN1CC[C@@H](C(=O)Nc2nc3c(s2)CN(C(=O)c2cn(CC(=O)N4CCCC4)nn2)CC3)C1 [compound 77] | – | 84.1
33 | Cc1ccc(N(CCC(=O)N2CCc3nc(NC(=O)[C@@H]4CCN(C#N)C4)sc3C2)S(=O)(=O)c2ccccc2)cc1 [compound 79] | – | 87.6
34 | Cc1noc(-c2ccc(C(=O)N3CCc4nc(NC(=O)[C@@H]5CCN(C#N)C5)sc4C3)cc2)n1 [compound 244] | – | 58.5
35 | Cc1nn(C2CCOCC2)c(C)c1C(=O)N1CCc2nc(NC(=O)[C@@H]3CCN(C#N)C3)sc2C1 [compound 135] | – | 63
36 | N#CN1CC[C@@H](C(=O)Nc2nc3c(s2)CN(C(=O)C2=NNC(=O)C2c2ccccc2)CC3)C1 (stereo partly drawn) [compound 168] | – | 80.3
37 | Cc1ccc(S(=O)(=O)NCCc2ccc(F)cc2)cc1C(=O)N1CCc2nc(NC(=O)[C@@H]3CCN(C#N)C3)sc2C1 [compound 247] | – | 86.9
38 | Cc1onc(-c2ccncc2)c1C(=O)N1CCc2nc(NC(=O)[C@@H]3CCN(C#N)C3)sc2C1 [compound 224] | – | 73.5
39 | Cc1nc(-c2ncccn2)sc1C(=O)N1CCc2nc(NC(=O)[C@@H]3CCN(C#N)C3)sc2C1 [compound 75] | – | 72
40 | Cc1cnn(-c2c(C(=O)N3CCc4nc(NC(=O)[C@@H]5CCN(C#N)C5)sc4C3)c(C)nn2C)c1 [compound 26] | – | 61.4
41 | Cn1cc(S(=O)(=O)NCc2ccco2)cc1C(=O)N1CCc2nc(NC(=O)[C@@H]3CCN(C#N)C3)sc2C1 [compound 73] | – | 82.4
42 | N#CN1CC[C@@H](C(=O)Nc2nc3c(s2)CN(C(=O)c2cc(S(N)(=O)=O)ccc2-c2cccc(C(F)(F)F)c2)CC3)C1 [compound 19] | – | 69
43 | N#CN1CC[C@@H](C(=O)Nc2nc3c(s2)CN(C(=O)c2sccc2S(=O)(=O)NC2CCCCCC2)CC3)C1 [compound 284] | – | 75.9
44 | N#CN1CC[C@@H](C(=O)Nc2nc3c(s2)CN(C(=O)c2cccnc2N2CCCCC2)CC3)C1 [compound 167] | – | 69.5
45 | N#CN1CC[C@@H](C(=O)Nc2nc3c(s2)CN(C(=O)c2noc(Cc4ccccc4F)n2)CC3)C1 [compound 37] | – | 73.8
46 | N#CN1CC[C@@H](C(=O)Nc2nc3c(s2)CN(C(=O)c2noc(-c4cccc(Cl)c4)n2)CC3)C1 [compound 85] | – | 63

Row | Compound | inhibition at 1.25 µM (FP reagent JYQ-107) [%] | inhibition at 1.25 µM [%]
47 | CN1CCN(c2ccccc2C(=O)N2CCc3nc(NC(=O)[C@@H]4CCN(C#N)C4)sc3C2)CC1 [compound 17] | – | 51.2
48 | CC1CCCC(N2CC(C(=O)N3CCc4nc(NC(=O)[C@@H]5CCN(C#N)C5)sc4C3)CC2=O)C1C (stereo partly drawn) [compound 153] | – | 64.4
49 | Cn1ncc(C2CC2)c1C(=O)N1CCc2nc(NC(=O)[C@@H]3CCN(C#N)C3)sc2C1 [compound 82] | – | 71.4
50 | N#CN1CC[C@@H](C(=O)Nc2nc3c(s2)CN(C(=O)c2cc(-c4ccc(Br)cc4)ns2)CC3)C1 [compound 81] | – | 80.2
51 | N#CN1CC[C@@H](C(=O)Nc2nc3c(s2)CN(C(=O)c2cnc(Cc4ccc(F)cc4)s2)CC3)C1 [compound 298] | – | 79.5
52 | N#CN1CC[C@@H](C(=O)Nc2nc3c(s2)CN(C(=O)c2csc(-c4cnc[nH]4)n2)CC3)C1 [compound 154] | – | 77.3
53 | N#CN1CC[C@@H](C(=O)Nc2nc3c(s2)CN(C(=O)c2ccc(=O)n(Cc4ccccc4)n2)CC3)C1 [compound 127] | – | 83.8
54 | Cc1oc(Cn2cc(Br)cn2)cc1C(=O)N1CCc2nc(NC(=O)[C@@H]3CCN(C#N)C3)sc2C1 [compound 72] | – | 87
55 | CC1CN(c2ccc(C(=O)N3CCc4nc(NC(=O)[C@@H]5CCN(C#N)C5)sc4C3)cn2)CC(C)O1 (stereo partly drawn) [compound 269] | – | 85.9
56 | N#CN1CC[C@@H](C(=O)Nc2nc3c(s2)CN(C(=O)c2ccc(-c4cnco4)cc2)CC3)C1 [compound 171] | – | 77.5
57 | Cc1nc(C(=O)N2CCc3nc(NC(=O)[C@@H]4CCN(C#N)C4)sc3C2)co1 [compound 126] | – | 70.6
58 | N#CN1CC[C@@H](C(=O)Nc2nc3c(s2)CN(C(=O)c2occc2CN2CCOCC2)CC3)C1 [compound 122] | – | 70.9
59 | Cc1nn(-c2ccccn2)c(C)c1CC(=O)N1CCc2nc(NC(=O)[C@@H]3CCN(C#N)C3)sc2C1 [compound 231] | – | 67.1
60 | N#CN1CC[C@@H](C(=O)Nc2nc3c(s2)CN(C(=O)Cc2ccc(S(=O)(=O)N4CCCC4)s2)CC3)C1 [compound 15] | – | 69.5
61 | N#CN1CC[C@@H](C(=O)Nc2nc3c(s2)CN(C(=O)Cc2csc(-n4cccc4)n2)CC3)C1 [compound 99] | – | 86.7
62 | Cn1nc(CC(=O)N2CCc3nc(NC(=O)[C@@H]4CCN(C#N)C4)sc3C2)cc1C1CC1 [compound 241] | – | 86.1
63 | N#CN1CC[C@@H](C(=O)Nc2nc3c(s2)CN(C(=O)Cc2cccc(OCc4ccccn4)c2)CC3)C1 [compound 74] | – | 82.1
64 | N#CN1CC[C@@H](C(=O)Nc2nc3c(s2)CN(C(=O)C2CCN(C(=O)c4ccc(Cl)s4)CC2)CC3)C1 [compound 267] | – | 75.5
65 | CC1CCN(c2ncc(C(=O)N3CCc4nc(NC(=O)[C@@H]5CCN(C#N)C5)sc4C3)s2)CC1 [compound 88] | – | 77.3
66 | N#CN1CC[C@@H](C(=O)Nc2nc3c(s2)CN(C(=O)C2CCN(C(=O)c4ccccn4)CC2)CC3)C1 [compound 158] | – | 69.2
